Measured values from patent US7425557B2, “Inhibitors of glycogen synthase kinase 3” (Novartis Vaccines and Diagnostics, Inc., priority 1998, dated 2008).

Target: human GSK3β (Homo sapiens, UniProt P49841)
Assay: Screening for GSK3 inhibitory activity using a cell-free assay
Format: biochemical
Conditions: read-out: IC50 with respect to GSK3
Method in brief: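 Compounds in DMSO were tested against human GSK3β over a three-hour kinase reaction. Radiolabeled phosphate transferred to the peptide was captured on streptavidin plates after EDTA/ATP stop and quantified by scintillation counting. Signal was plotted versus compound concentration.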

human GSK3β, sequence (P49841 whole entry): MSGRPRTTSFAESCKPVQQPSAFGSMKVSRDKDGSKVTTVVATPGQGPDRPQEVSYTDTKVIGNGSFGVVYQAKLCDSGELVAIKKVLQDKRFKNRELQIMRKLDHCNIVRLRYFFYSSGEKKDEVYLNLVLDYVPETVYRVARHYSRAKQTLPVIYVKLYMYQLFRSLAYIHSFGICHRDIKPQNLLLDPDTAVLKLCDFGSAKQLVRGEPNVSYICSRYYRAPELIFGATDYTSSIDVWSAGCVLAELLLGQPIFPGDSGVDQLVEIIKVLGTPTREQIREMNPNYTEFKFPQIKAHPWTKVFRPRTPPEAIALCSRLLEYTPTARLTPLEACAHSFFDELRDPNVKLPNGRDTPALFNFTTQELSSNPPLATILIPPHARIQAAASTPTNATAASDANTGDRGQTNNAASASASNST

Compound | IC50
N#Cc1cnc(NCCNc2nccc(-c3ccc(C(=O)NCc4cccc(Br)c4)cc3)n2)nc1N [{4-[2-({2-[(4-amino-5-cyanopyrimidin-2-yl)amino]ethyl}amino)pyrimidin-4-yl]phenyl}-N-[(3-bromophenyl)methyl]carboxamide] | ≤ 1 µM
NS(=O)(=O)c1ccc(CNC(=O)c2ccc(-c3ccnc(NCCNc4ccc([N+](=O)[O-])cn4)n3)cc2)cc1 [{4-[2-({2-[(5-nitro(2-pyridyl))-amino]ethyl}amino)pyrimidin-4-yl]phenyl}-N-[(4-sulfamoylphenyl)methyl]carboxamide] | ≤ 10 µM
O=C(NCCc1ccccc1)c1ccc(-c2ccnc(NCCNc3ccc([N+](=O)[O-])cn3)n2)cc1 [{4-[2-({2-[(5-nitro(2-pyridyl))amino]ethyl}amino)-pyrimidin-4-yl]phenyl}-N-(2-phenylethyl)carboxamide] | ≤ 10 µM
O=C(NCc1cccs1)c1ccc(-c2ccnc(NCCNc3ccc([N+](=O)[O-])cn3)n2)cc1 [{4-[2-({2-[(5-nitro(2-pyridyl))amino]ethyl}amino)-pyrimidin-4-yl]phenyl}-N-(2-thienylmethyl)carboxamide] | ≤ 10 µM
O=C(NC1CC1c1ccccc1)c1ccc(-c2ccnc(NCCNc3ccc([N+](=O)[O-])cn3)n2)cc1 (centres unmarked) [{4-[2-({2-[(5-nitro(2-pyridyl))amino]ethyl}amino)pyrimidin-4-yl]phenyl}-N-(2-phenylcyclopropyl)-carboxamide] | ≤ 10 µM
O=C(NCc1cccnc1)c1ccc(-c2ccnc(NCCNc3ccc([N+](=O)[O-])cn3)n2)cc1 [{4-[2-({2-[(5-nitro(2-pyridyl))amino]ethyl}amino)pyrimidin-4-yl]phenyl}-N-(3-pyridylmethyl)carboxamide] | ≤ 10 µM
O=C(NCC1CCNCC1)c1ccc(-c2ccnc(NCCNc3ccc([N+](=O)[O-])cn3)n2)cc1 [{4-[2-({2-[(5-nitro(2-pyridyl))amino]ethyl}amino)pyrimidin-4-yl]phenyl}-N-(4-piperidylmethyl)carboxamide] | ≤ 10 µM
O=C(NCC1CCCO1)c1ccc(-c2ccnc(NCCNc3ccc([N+](=O)[O-])cn3)n2)cc1 (centres unmarked) [{4-[2-({2-[(5-nitro(2-pyridyl))amino]ethyl}amino)pyrimidin-4-yl]phenyl}-N-(oxolan-2-ylmethyl)carboxamide] | ≤ 10 µM
O=C(NCc1cccc([N+](=O)[O-])c1)c1ccc(-c2ccnc(NCCNc3ccc([N+](=O)[O-])cn3)n2)cc1 [{4-[2-({2-[(5-nitro(2-pyridyl))amino]ethyl}amino)pyrimidin-4-yl]phenyl}-N-[(3-nitrophenyl)-methyl]carboxamide] | ≤ 10 µM
O=C(NCc1ccccc1)c1ccc(-c2ccnc(NCCNc3ccc([N+](=O)[O-])cn3)n2)cc1 [{4-[2-({2-[(5-nitro(2-pyridyl))amino]ethyl}amino)pyrimidin-4-yl]phenyl}-N-benzylcarboxamide] | ≤ 10 µM
O=C(NCc1cccc(C(F)(F)F)c1)c1ccc(-c2ccnc(NCCNc3ccc([N+](=O)[O-])cn3)n2)cc1 [{4-[2-({2-[(5-nitro(2-pyridyl))amino]ethyl}amino)pyrimidin-4-yl]phenyl}-N-{[3-(trifluoromethyl)phenyl]methyl}carboxamide] | ≤ 10 µM
Nc1nc(NCCNc2nccc(-c3ccc(C(=O)NCc4cccc(Br)c4)cc3)n2)ccc1[N+](=O)[O-] [{4-[2-({2-[(6-amino-5-nitro(2-pyridyl))amino]ethyl}amino)pyrimidin-4-yl]phenyl}-N-[(3-bromophenyl)methyl]-carboxamide] | ≤ 10 µM
Nc1nc(NCCNc2nccc(-c3ccc(C(=O)NCc4ccccc4)cc3)n2)ccc1[N+](=O)[O-] [{4-[2-({2-[(6-amino-5-nitro(2-pyridyl))amino]ethyl}amino)pyrimidin-4-yl]phenyl}-N-benzylcarboxamide] | ≤ 10 µM
O=[N+]([O-])c1ccc(NCCNc2nccc(-c3ccc(-c4nc(Cl)c(Cl)[nH]4)cc3)n2)nc1 [{4-[4-(4,5-dichloroimidazol-2-yl)phenyl]-pyrimidin-2-yl}{2-[(5-nitro(2-pyridyl))amino]ethyl}amine] | ≤ 10 µM
O=[N+]([O-])c1ccc(NCCNc2ncc(-c3ncc[nH]3)c(-c3ccc(C(F)(F)F)cc3)n2)nc1 [{5-imidazol-2-yl-4-[4-(trifluoromethyl)phenyl]pyrimidin-2-yl}{2-[(5-nitro(2-pyridyl))amino]ethyl}amine] | ≤ 1 µM
COCCNc1nc(NCCNc2ccc([N+](=O)[O-])cn2)ccc1[N+](=O)[O-] [{6-[(2-methoxyethyl)amino]-5-nitro(2-pyridyl)}{2-[(5-nitro(2-pyridyl))amino]ethyl}amine] | ≤ 10 µM

Continued, values first:

IC50 | Compound
≤ 1 µM | O=[N+]([O-])c1ccc(NCCNc2nccc(-c3ccc(N4CCOCC4)cc3)n2)nc1 [[4-(4-morpholin-4-ylphenyl)-pyrimidin-2-yl]{2-[(5-nitro(2-pyridyl))amino]ethyl}amine]
≤ 1 µM | Cc1c[nH]c(-c2cnc(NCCNc3ccc([N+](=O)[O-])c(N)n3)nc2-c2ccc(Br)cc2Cl)n1 [{2-[(6-amino-5-nitro(2-pyridyl))amino]ethyl}[4-(4-bromo-2-chlorophenyl)-5-(4-methylimidazol-2-yl)pyrimidin-2-yl]amine]
≤ 1 µM | Nc1nc(NCCNc2ncc(-c3ncc[nH]3)c(-c3ccc(Br)cc3Cl)n2)ccc1[N+](=O)[O-] [{2-[(6-amino-5-nitro(2-pyridyl))amino]ethyl}[4-(4-bromo-2-chlorophenyl)-5-imidazol-2-ylpyrimidin-2-yl]amine]
≤ 1 µM | Cc1cc(Cl)ccc1-c1nc(NCCNc2ccc([N+](=O)[O-])c(N)n2)ncc1-c1ncc[nH]1 [{2-[(6-amino-5-nitro(2-pyridyl))amino]ethyl}[4-(4-chloro-2-methylphenyl)-5-imidazol-2-ylpyrimidin-2-yl]amine]
≤ 1 µM | CCc1ccc(-c2nc(NCCNc3ccc([N+](=O)[O-])c(N)n3)ncc2-n2ccnc2)cc1 [{2-[(6-amino-5-nitro(2-pyridyl))amino]ethyl}[4-(4-ethylphenyl)-5-imidazolylpyrimidin-2-yl]amine]
≤ 1 µM | Cc1cn(-c2ccc(NCCNc3ccc([N+](=O)[O-])c(N)n3)nc2-c2ccc(Cl)cc2Cl)cn1 [{2-[(6-amino-5-nitro(2-pyridyl))amino]ethyl}[6-(2,4-dichlorophenyl)-5-(4-methylimidazolyl)(2-pyridyl)]amine]
≤ 1 µM | Nc1nc(NCCNc2ccc(-n3ccnc3)c(-c3ccc(Cl)cc3Cl)n2)ccc1[N+](=O)[O-] [{2-[(6-amino-5-nitro(2-pyridyl))amino]ethyl}[6-(2,4-dichlorophenyl)-5-imidazolyl(2-pyridyl)]amine]
≤ 1 µM | Nc1nc(NCCNc2ccc([N+](=O)[O-])c(-c3ccc(Cl)cc3Cl)n2)ccc1[N+](=O)[O-] [{2-[(6-amino-5-nitro(2-pyridyl))amino]ethyl}[6-(2,4-dichlorophenyl)-5-nitro(2-pyridyl)]amine]
≤ 1 µM | Nc1nc(NCCNc2ncc(-n3nnnc3C(F)(F)F)c(-c3ccc(Cl)cc3Cl)n2)ccc1[N+](=O)[O-] [{2-[(6-amino-5-nitro(2-pyridyl))amino]ethyl}{4-(2,4-dichlorophenyl)-5-[5-(trifluoromethyl)(1,2,3,4-tetraazolyl)]pyrimidin-2-yl}amine]

System: not given
Assay: not given
Conditions: not given

melting point | Compound
223 to 225 °C (dec.) | O=[N+]([O-])c1ccc(NCCNc2nccc(-c3ccc(N4CCOCC4)cc3)n2)nc1 [[4-(4-morpholin-4-ylphenyl)-pyrimidin-2-yl]{2-[(5-nitro(2-pyridyl))amino]ethyl}amine]
